# Results published in ChEMBL document CHEMBL1201862, “PubChem BioAssay data set” (2004).
# Activity calls are given as the source filed them.
# Assays:
# [1] = target: T1, Heat shock factor protein 1 (Mus musculus, UniProt P38532); test: enhancement of HSF1-driven luciferase signal – cell-based, NIH3T3, luminescence, dose retest, confirmation (AID 435004); format: functional;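 note: stress induced by proteasome inhibitor MG132 added 30 min after compound; luciferase reporter driven by HSF1 response element in NIH3T3 cells; actives raise luminescence as potentiators of the MG132 stress response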
# T1 sequence (P38532 whole entry): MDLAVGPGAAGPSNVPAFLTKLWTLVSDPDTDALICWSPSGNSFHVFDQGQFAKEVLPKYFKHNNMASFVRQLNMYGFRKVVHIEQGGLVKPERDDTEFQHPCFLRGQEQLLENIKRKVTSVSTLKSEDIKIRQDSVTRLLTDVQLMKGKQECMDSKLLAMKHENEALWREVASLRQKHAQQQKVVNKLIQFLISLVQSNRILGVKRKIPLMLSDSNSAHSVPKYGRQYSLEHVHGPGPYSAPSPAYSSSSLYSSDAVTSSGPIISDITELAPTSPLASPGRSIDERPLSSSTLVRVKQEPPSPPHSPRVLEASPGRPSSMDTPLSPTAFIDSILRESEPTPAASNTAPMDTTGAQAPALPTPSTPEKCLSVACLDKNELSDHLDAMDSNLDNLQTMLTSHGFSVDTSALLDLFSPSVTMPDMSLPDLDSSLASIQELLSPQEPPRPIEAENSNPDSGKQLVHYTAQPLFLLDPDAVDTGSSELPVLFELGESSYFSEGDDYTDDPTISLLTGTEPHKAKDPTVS
# Protein skinhead-1 = target: T2, Protein skinhead-1 (Caenorhabditis elegans, UniProt P34707); format: functional
# T2 sequence (P34707 whole entry): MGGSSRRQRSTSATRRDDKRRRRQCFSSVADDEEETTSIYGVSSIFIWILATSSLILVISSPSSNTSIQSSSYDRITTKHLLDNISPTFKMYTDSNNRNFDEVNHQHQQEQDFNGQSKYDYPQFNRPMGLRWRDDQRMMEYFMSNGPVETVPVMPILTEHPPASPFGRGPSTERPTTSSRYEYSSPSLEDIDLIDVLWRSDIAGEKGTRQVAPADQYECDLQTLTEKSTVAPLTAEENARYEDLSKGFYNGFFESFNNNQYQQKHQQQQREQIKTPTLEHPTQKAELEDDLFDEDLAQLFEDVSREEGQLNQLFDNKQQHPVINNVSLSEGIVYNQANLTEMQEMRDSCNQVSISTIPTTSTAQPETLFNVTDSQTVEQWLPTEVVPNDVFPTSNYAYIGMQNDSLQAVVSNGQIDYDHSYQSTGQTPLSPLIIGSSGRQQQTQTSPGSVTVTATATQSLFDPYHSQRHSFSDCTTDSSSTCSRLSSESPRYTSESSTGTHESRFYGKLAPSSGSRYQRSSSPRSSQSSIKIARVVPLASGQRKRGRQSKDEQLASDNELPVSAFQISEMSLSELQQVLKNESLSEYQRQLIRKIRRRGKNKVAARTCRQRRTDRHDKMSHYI
# [2] = target: T3, Replicative DNA helicase DnaB (Mycobacterium tuberculosis, UniProt P9WMR3); test: DnaB intein splicing inhibitors, dose response, biochemical, cell-free fluorescence (AID 449749); format: functional
# T3 sequence (P9WMR3 whole entry): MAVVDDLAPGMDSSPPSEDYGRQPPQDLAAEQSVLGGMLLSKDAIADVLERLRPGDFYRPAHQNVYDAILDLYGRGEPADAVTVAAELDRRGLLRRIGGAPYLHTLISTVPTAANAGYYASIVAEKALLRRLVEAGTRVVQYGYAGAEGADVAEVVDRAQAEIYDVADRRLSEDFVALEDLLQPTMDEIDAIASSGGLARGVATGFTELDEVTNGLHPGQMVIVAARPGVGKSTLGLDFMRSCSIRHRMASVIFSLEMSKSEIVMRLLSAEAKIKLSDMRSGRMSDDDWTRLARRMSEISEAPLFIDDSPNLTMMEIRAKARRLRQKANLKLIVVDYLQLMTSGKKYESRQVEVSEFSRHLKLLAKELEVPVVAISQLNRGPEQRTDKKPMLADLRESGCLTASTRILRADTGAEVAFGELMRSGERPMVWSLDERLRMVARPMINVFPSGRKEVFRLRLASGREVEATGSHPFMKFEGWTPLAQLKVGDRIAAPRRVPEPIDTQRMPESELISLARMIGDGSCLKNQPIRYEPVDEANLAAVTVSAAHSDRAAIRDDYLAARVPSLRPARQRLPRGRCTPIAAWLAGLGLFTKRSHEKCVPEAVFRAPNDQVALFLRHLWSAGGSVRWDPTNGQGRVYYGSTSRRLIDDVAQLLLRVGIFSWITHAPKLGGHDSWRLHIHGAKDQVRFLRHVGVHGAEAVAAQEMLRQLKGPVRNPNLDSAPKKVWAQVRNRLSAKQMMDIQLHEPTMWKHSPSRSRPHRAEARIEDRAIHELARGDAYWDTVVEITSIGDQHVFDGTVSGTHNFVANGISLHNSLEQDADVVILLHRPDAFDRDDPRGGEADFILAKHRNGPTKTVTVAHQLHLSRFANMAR
# [3] = Luminescence Cell-Based Dose Retest to Confirm Inhibitors of Cancer Stem Cells. [Related pubchem assays (depositor defined):AID2717, AID2721]; format: functional; conditions: Homo sapiens
# Protein RecA = target: T4, Protein RecA (Mycobacterium tuberculosis, UniProt P9WHJ3); test: Fluorescence Cell-Free Homogeneous Dose Retest to Identify Inhibitors of RecA-Intein Splicing Activity. [Related pubchem assays (depositor defined):AID2097, AID2223, AID489010, AID492950]; format: functional
# T4 sequence (P9WHJ3 whole entry): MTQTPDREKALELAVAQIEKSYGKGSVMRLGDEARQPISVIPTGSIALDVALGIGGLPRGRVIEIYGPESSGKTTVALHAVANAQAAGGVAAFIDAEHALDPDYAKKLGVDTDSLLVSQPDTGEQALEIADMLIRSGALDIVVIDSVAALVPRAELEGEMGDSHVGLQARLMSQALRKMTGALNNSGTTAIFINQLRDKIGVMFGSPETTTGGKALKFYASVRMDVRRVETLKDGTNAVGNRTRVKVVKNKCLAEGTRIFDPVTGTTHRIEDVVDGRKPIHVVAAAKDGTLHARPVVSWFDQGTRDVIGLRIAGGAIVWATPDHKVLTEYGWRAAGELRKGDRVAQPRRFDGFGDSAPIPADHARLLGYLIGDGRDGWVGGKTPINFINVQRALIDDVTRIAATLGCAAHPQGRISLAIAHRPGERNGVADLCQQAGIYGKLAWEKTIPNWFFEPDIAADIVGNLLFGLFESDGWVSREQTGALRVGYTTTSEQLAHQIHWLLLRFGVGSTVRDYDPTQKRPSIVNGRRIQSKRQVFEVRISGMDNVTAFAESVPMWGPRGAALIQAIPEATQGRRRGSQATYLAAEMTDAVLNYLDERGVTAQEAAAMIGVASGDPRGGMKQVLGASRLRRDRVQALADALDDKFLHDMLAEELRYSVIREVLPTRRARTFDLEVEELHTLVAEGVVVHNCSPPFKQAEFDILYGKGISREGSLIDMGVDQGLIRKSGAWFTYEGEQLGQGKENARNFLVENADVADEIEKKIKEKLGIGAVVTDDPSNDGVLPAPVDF
# [4] = Luminescence Cell-Based Dose Response HTS to Identify Activators of Luciferase Translation or Activity in H4 […] Cells. [Related pubchem assays: 1829 (Project Summary), 1814 (Primary HTS)]; format: functional
# H4 = test: Luminescence Cell-Based Dose Response HTS to Identify Activators of 5'UTR Stem-Loop Driven Prion Protein mRNA Translation in H4 Neuroglioblastoma Cells. [Related pubchem assays: 1829 (Project Summary), 1814 (Primary HTS)]; format: functional; conditions: Homo sapiens
# Cytochrome P450 2C9 = Cytochrome P450 2C9 (Homo sapiens, UniProt P11712)
# Cytochrome P450 2C9, sequence (P11712 whole entry): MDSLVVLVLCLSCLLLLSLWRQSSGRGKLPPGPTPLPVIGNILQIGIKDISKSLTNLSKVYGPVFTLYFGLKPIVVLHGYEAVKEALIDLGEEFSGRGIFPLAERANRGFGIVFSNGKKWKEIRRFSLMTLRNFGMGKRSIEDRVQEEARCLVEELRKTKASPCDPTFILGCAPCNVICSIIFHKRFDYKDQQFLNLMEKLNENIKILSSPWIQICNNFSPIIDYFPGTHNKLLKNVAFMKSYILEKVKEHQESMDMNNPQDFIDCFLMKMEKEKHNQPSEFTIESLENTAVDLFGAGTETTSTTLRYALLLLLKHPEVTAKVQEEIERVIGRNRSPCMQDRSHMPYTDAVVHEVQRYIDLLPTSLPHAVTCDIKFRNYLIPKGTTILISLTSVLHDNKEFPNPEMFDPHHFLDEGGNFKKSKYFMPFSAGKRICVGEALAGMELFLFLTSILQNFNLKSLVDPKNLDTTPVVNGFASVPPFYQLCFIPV
# Cytochrome P450 3A4 = Cytochrome P450 3A4 (Homo sapiens, UniProt P08684);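 note: CYP3A4 tested as one member of a cytochrome P450 panel screen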
# Cytochrome P450 3A4, sequence (P08684 whole entry): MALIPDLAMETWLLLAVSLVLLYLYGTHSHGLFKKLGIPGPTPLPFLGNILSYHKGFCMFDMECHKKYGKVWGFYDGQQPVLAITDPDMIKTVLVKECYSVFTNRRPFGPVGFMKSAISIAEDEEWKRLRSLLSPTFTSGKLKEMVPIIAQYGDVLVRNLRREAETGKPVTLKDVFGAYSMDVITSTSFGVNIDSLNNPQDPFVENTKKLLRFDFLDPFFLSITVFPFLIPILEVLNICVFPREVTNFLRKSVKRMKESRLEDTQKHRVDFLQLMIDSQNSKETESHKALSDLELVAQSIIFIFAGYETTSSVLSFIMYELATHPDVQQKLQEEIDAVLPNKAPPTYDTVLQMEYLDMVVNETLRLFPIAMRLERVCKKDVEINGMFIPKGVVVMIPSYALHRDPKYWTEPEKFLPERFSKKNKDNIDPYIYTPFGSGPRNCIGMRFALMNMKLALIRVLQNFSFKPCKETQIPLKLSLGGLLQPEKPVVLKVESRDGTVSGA
# [5] = NIH-3T3 fibroblast cytotoxicity, dose response, cytotoxicity control, cell-based, fluorescence, Alamar Blue, secondary assay (AID 2327); format: functional;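 note: NIH-3T3 mouse fibroblasts cultured with fluconazole at 8 µg/mL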
# [6] = fluconazole-exposed Candida albicans growth modulators – fluorescence, retest, confirmation (AID 2467); format: functional, cell-based
# [7] = viability of uninfected HEp-2 cells – cell-based, HTS, cytotoxicity control for RSV inhibitor project, dose response (AID 2410); format: functional; conditions: human respiratory syncytial virus
# [8] = non-specific 3'UTR reporter inhibition in Clone20-Shn3RL – cell-based, Renilla luciferase, cherry-picked, counter-screen for Shn3 inhibitor project, dose response (AID 624133); format: functional
# [9] = reduction of Shn3 3'UTR-driven luciferase in osteoblasts – cell-based, Clone20 osteoblasts, firefly luciferase, cherry-picked, dose response (AID 624132); format: functional;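 note: firefly luciferase luminescence from reporter carrying the Shn3 3'UTR in osteoblasts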
# [10] = NIH3T3 cell viability loss – ATP luminescence, mouse fibroblasts, counter-screen, dose response (AID 2010); format: functional, cell-based;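 note: cells exposed to compound for about 90 hours before reading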
# [11] = Trypanosoma cruzi growth suppression in host cells – NIH3T3 host cells, beta-gal luminescence, confirmation (AID 2044); format: functional, cell-based;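 note: intracellular parasites grown in NIH/3T3 mouse fibroblasts as host cells; luminescent beta-galactosidase reporter signal from transgenic T. cruzi replicating inside host cells; inhibitors lower the luminescence signal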
# [12] = blockers of HIV-1 envelope-mediated cell-cell fusion – cherry-pick, dose response (AID 652057); format: functional, cell-based
smiles,measurement,setting,value
O=C1NC(=O)[C@]2(Cc3ccccc3N3CCN(c4ccccc4)CC32)C(=O)N1Cc1ccccc1 (stereo partly drawn),EC50,[1],> 260 µM (inactive)
Cn1c(CN2CCN(C(=O)c3ccc(F)cc3)CC2)nc2cc([N+](=O)[O-])ccc21,EC50,[1],> 260 µM (inactive)
Cc1nc(-c2cccc(NC(=O)c3ccco3)c2)cs1,IC50,Protein skinhead-1,> 100 µM (inactive)
Cc1cc(-c2ccccc2)nc2cc(C(=O)N(Cc3ccccc3)Cc3ccccc3)nn12,AC50,[2],> 120 µM (inactive)
same,AC50,[3],4.86 µM (active)
same,EC50,Protein RecA,> 380 µM (inactive)
Clc1ccc(-c2cc(CSc3ccccc3)on2)cc1,IC50,Protein skinhead-1,20 µM (active)
CCCn1c(C)cc(C(=O)CSc2nc3ccccc3c(=O)n2Cc2ccco2)c1C,EC50,[4],0.112 µM (active)
same,EC50,H4,5 µM (active)
COc1ccc(C(C(=O)NC2CCCC2)N(C(=O)c2snc(-c3ccc(F)cc3)c2N)c2ccc(F)cc2)cc1 (stereo not drawn),AC50,Cytochrome P450 2C9,1.78 µM (inconclusive)
same,IC50,Protein skinhead-1,> 100 µM (inactive)
same,AC50,Cytochrome P450 3A4,12.6 µM (inconclusive)
CCCOc1ccc(C(=O)C2=C(O)C(=O)N(c3cc(C)on3)C2c2ccc(C(=O)OC)cc2)cc1 (stereo not drawn),IC50,Protein skinhead-1,> 100 µM (inactive)
CCOCCCNC(=O)c1ccc(N(C)S(=O)(=O)c2ccc(OC)cc2)cc1,EC50,[5],> 160 µM (inactive)
same,EC50,[6],> 38 µM (not active)
CCCCNc1nc(Nc2ccc(C)c(Cl)c2)c2cnn(C)c2n1,CC50,[7],6.78 µM (active)
same,AC50,[3],9.2 µM (active)
same,EC50,[1],> 260 µM (inactive)
CCCc1cc2nnc(SCC(=O)N(C)C3CCCCC3)n2c(N)n1,IC50,Protein skinhead-1,> 100 µM (inactive)
Cc1ccc(C(=O)/C=C/c2ccc(-c3ccc(C)cc3)o2)cc1,AC50,[8],14.3 µM (active)
same,AC50,[9],2.79 µM (active)
N#CC1=C(N)N(c2ccccc2)C(c2ccccc2)C1(C#N)C#N (stereo not drawn),AC50,[2],7.51 µM (active)
same,EC50,Protein RecA,11.6 µM (active)
CC12CCC(=O)N1C(C(=O)Nc1cccc3ccccc13)CS2 (stereo not drawn),EC50,[1],> 260 µM (inactive)
Cc1ccc(CNC(=O)c2cn(C3CCCCC3)c(=O)c3c2c2ccccc2n3C)o1,CC50,[7],23.3 µM (active)
same,EC50,[1],51.7 µM (active)
CC(C)(C)c1ccc(C2=CSC3=NCCN23)cc1,IC50,Protein skinhead-1,> 100 µM (inactive)
CCC(=O)Nc1ccc2nn(-c3ccc(F)cc3)nc2c1,EC50,[10],> 60 µM (not active)
same,EC50,[1],> 260 µM (inactive)
same,EC50,[11],4.4 µM (active)
Cc1cc2cc(CNC(=O)c3cccc([N+](=O)[O-])c3)ccc2n1C,IC50,Protein skinhead-1,> 100 µM (inactive)
COC(=O)c1ccc(C(=O)OC)c(-n2c(=O)c3ccccc3c3ccccc3c2=O)c1,AC50,[2],8.61 µM (active)
same,EC50,Protein RecA,18.5 µM (active)
CCC(C)Nc1nc(Cl)nc(N(C#N)CN2C(=O)c3ccccc3S2(=O)=O)n1 (stereo not drawn),AC50,[2],14 µM (active)
same,EC50,Protein RecA,18.2 µM (active)
Cn1c(Sc2ccc(C(F)(F)F)cc2[N+](=O)[O-])nnc1-c1ccccc1,EC50,[1],> 260 µM (inactive)
O=C1CC2(CCN(C(=O)c3ccccc3F)CC2)Oc2ccccc21,AC50,[8],30.8 µM (active)
same,AC50,[9],65.8 µM (active)
Cc1cc(C)n(CC(O)COc2ccc(Cl)cc2Cl)n1 (stereo not drawn),EC50,[1],116 µM (active)
CCCNC(=O)c1ccc2c(O)c(O)c(-c3ccc(OC)cc3)nc2c1,EC50,[5],> 150 µM (inactive)
same,EC50,[6],> 38 µM (not active)
COc1ccc(CC(=O)O/N=C(\N)Cc2cccc3ccccc23)cc1OC,AC50,[2],73.3 µM (active)
same,EC50,Protein RecA,18.2 µM (active)
O=C(Oc1ccc(N2C(=O)C3C4CCC(C4)C3C2=O)cc1)c1ccco1 (stereo not drawn),AC50,[2],28.2 µM (active)
same,EC50,Protein RecA,13 µM (active)
N#Cc1ccccc1OCC(O)CS(=O)(=O)c1ccccc1 (stereo not drawn),IC50,Protein skinhead-1,> 100 µM (inactive)
CC(=O)Nc1ccc2c(c1)Cc1c-2cc(Br)c(N)c1Br,IC50,Protein skinhead-1,> 100 µM (inactive)
COc1ccc(S(=O)(=O)N(C)C[C@H]2Oc3cc(C4=CCCC4)ccc3S(=O)(=O)N([C@@H](C)CO)C[C@H]2C)cc1,AC50,[12],16.4 µM (active)
CCn1c(C)nc2cc(C(=O)N/N=C/c3cccc(OC)c3O)ccc21,EC50,[5],16.2 µM (active)
same,AC50,[3],8.16 µM (active)
same,EC50,[6],> 38 µM (not active)
COc1ccc(/C=N/OCC(=O)Nc2nc3ccccc3s2)cc1,EC50,[5],> 150 µM (inactive)
same,EC50,[6],4.97 µM (active)
